Results: patent US11059795B2, “Androgen receptor modulators and methods for their use” (ESSA Pharma, Inc., priority 2018, dated 2021)

Assays:
[1] = Microsomal stability assay, mouse liver microsomes; format: in vitro ADME; conditions: for microsomal CLint at 1 μM: mouse, liver microsomes, pH 7.4, mouse liver microsomes, 1 μM compound, 0.5 mg/mL protein, 37° C., read-out: MLM +30/− NADPH: Clint (μL/min/mg protein); for half-life at 1 μM: pH 7.4, mouse liver microsomes, read-out: Liver microsome T½ (min) Mouse
How it was run: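 Compound at 1 μM was incubated at 37° C with 0.5 mg/mL liver microsomes and 1 mM NADPH and/or 1 mM UDPGA (with alamethicin) in 100 mM potassium phosphate pH 7.4, 3 mM MgCl2. Samples were taken at 0, 15, 30 and 60 min and measured by LC/MS/MS. t½ came from compound loss relative to 0 min, and Clint was scaled with 45 mg microsomal protein/g liver.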

[2] = target: T1, LBD of androgen receptor (AR) fused to DBD of GAL4 (Homo sapiens, UniProt P10275); assay: LBD-expressing reporter assay (GeneBLAzer), AR LBD; format: cell-based; conditions: inhibition of maximal activity attained with agonist; read-out: Steroid Receptor LBD IC50 (μM) AR
T1 sequence (P10275 669-900 limits assumed): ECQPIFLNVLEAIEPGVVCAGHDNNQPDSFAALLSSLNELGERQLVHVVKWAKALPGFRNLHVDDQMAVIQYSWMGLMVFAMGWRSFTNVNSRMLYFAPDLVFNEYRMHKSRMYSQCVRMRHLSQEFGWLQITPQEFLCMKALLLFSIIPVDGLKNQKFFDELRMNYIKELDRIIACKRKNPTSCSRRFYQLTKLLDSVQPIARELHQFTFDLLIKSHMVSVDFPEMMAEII
Description: (§1) This assay uses cells that stably express a chimera fusion protein comprising the LBD of a steroid hormone receptor fused to the DNA-binding domain (DBD) of GAL4 along with beta-lactamase reporter under transcriptional control of an upstream activator sequence (UAS). When agonist binds to the LBD of the GAL4 (DBD)-steroid hormone (LBD) chimera fusion protein, the protein binds to the UAS, resulting in expression of beta-lactamase. LBDs of androgen receptor (AR), progesterone receptor-beta (PRβ), glucocorticoid receptor (GR), estrogen receptor-α (ERα), and estrogen receptor-β (ERβ) were tested and IC50s calculated for inhibiting maximal activity attained with agonist.

[3] = target: T2, LBD of progesterone receptor-beta (PRβ) fused to DBD of GAL4 (Homo sapiens, UniProt P06401); assay: LBD-expressing reporter assay (GeneBLAzer), PR LBD; format: cell-based; conditions: inhibition of maximal activity attained with agonist; read-out: Steroid Receptor LBD IC50 (μM) PR
T2 sequence (P06401 679-913 limits assumed): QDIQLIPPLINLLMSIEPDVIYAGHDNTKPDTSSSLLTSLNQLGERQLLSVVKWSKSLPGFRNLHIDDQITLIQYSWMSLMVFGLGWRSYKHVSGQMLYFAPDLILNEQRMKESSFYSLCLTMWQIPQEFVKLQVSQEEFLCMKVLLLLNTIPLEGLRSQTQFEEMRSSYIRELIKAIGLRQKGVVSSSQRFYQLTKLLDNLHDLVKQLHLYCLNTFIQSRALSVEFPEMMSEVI
Description: as §1

[4] = system: LNCaP cells; assay: Cell proliferation/viability assay, LNCaP (Alamar blue); format: cell-based; conditions: Homo sapiens, AR specific proliferation with 0.1 nM R1881, read-out: Cellular Proliferation/Viability IC50 (μM) LNCaP
Method: (§2) Cell proliferation/viability was measured in LNCaP and PC3 cells with Alamar blue, and proliferation was measured in LN-CaP95 cells with BrdU incorporation. In LNCaP cells, AR specific proliferation is calculated by measuring the difference between control cells treated with or without 0.1 nM R1881.

[5] = system: PC3 cells; assay: Cell proliferation/viability assay, PC3 (Alamar blue); format: cell-based; conditions: Homo sapiens; PC-3, Alamar blue; read-out: Cellular Proliferation/Viability IC50 (μM) PC-3
Method: as §2

[6] = system: LN-CaP95 cells; assay: Cell proliferation assay, LNCaP95 (BrdU incorporation); format: cell-based; conditions: LNCaP-95, read-out: Cellular Proliferation/Viability IC50 (μM) LNCaP95
Method: as §2

[7] = Microsomal stability assay, dog liver microsomes; format: in vitro ADME; conditions: pH 7.4, read-out: Liver microsome T½ (min) Dog
Method: (§3) Microsomal stability assay is a widely used in vitro model to characterize the metabolic conversion by phase I enzymes, such as cytochrome P450 (CYP) enzymes. Since metabolism is known to be highly variable in different species, microsomal stability assay is commonly run in multiple species. Metabolic stability of testing compound can be evaluated using human, rat, mouse, or other animal liver or intestine microsomes to predict intrinsic clearance.
(§4) The assay was carried out in 96-well microtiter plates at 37° C. Reaction mixtures (25 μL) contained a final concentration of 1 μM test compound, 0.5 mg/mL liver microsomes protein, and 1 mM NADPH and/or 1 mM UDPGA (with alamethicin) in 100 mM potassium phosphate, pH 7.4 buffer with 3 mM MgCl2. The incubation was done with N=1, but duplicate incubation at each time point can be prepared if necessary. At each of the time points (for example, 0, 15, 30, and 60 minutes), 150 μL of quench solution (100% acetonitrile with 0.1% formic acid) with internal standard was transferred to each well. Besides the zero minute controls, mixtures containing the same components except the NADPH can also be prepared as the negative control. Verapamil was included as a positive control to verify assay performance. Plates were sealed, vortexed, and centrifuged at 4° C. for 15 minutes at 4000 rpm. The supernatant is transferred to fresh plates for LC/MS/MS analysis.
(§5) Summarized conditions: [Compound]=[…], [LM]=0.5 mg/mL, [NADPH]=1 mM and/or [UDPGA]=1 mM, Buffer=100 mM Potassium Phosphate, pH 7.4 with 3 mM MgCl2, Time=0, 15, 30, and 60 min, and Temperature=37° C.
(§6) All samples were analyzed on LC/MS/MS using an AB Sciex API 4000 instrument, coupled to a Shimadzu LC-20AD LC Pump system. Analytical samples were separated using a Waters Atlantis T3 dC18 reverse phase HPLC column (20 mm×2.1 mm) at a flow rate of 0.5 mL/min. The mobile phase consisted of 0.1% formic acid in water (solvent A) and 0.1% formic acid in 100% acetonitrile (solvent B).
(§7) The extent of metabolism is calculated as the disappearance of the test compound, compared to the 0-min time incubation. Initial rates are calculated for the compound concentration and used to determine half-life (t½) values and subsequently, the intrinsic clearance (Clint). Clint=(0.693)(1/t½ (min))(g of liver/kg of body weight)(mL incubation/mg of microsomal protein)(45 mg of microsomal protein/g of liver weight)

[8] = Microsomal stability assay, monkey liver microsomes; format: in vitro ADME; conditions: pH 7.4, read-out: Liver microsome T½ (min) Monkey
Method: as §3, §4, §5, §6, §7

[9] = system: LNCaP tumors; assay: LNCaP xenografts model in castrated male NCG mice; format: in vivo; conditions: Table 4; extrapolated Cmin in efficacy
Method: Tumor growth was measured in male NCG mice bearing LNCaP tumors. Castration was performed when tumors reached ˜100 mm^3 and dosing (60 mg/kg PO qd) started 1 week after castration. […] Individual tumor volume change from baseline measured at the end of the experiment.

## C[C@H](Oc1ccc(C(C)(C)c2cc(Cl)c(OCCCl)c(C#N)c2)cc1)c1ccnc(NS(C)(=O)=O)n1 (single isomer, unassigned) [Compound A170]
[1]
  microsomal CLint at 1 μM: < 12 µL/min/mg

## CC(C)(c1ccc(OCc2ocnc2S(C)(=O)=O)cc1)c1cc(Cl)c(OCCCl)c(Cl)c1 [Compound A13, 5-((4-(2-(3,5-dichloro-4-(2-chloroethoxy)phenyl)propan-2-yl)phenoxy)methyl)-4-(methylsulfonyl)oxazole]
[2]
  IC50: > 10 µM
[3]
  IC50: 0.97 µM
[4]
  IC50: 0.85 µM
[5]
  IC50: > 10 µM
[6]
  IC50: 4 µM
[1]
  microsomal CLint at 1 μM: < 12 µL/min/mg
  half-life at 1 μM: > 120 min
[7]
  half-life at 1 μM: > 120 min
[8]
  half-life at 1 μM: > 120 min
[9]
  Cmin at 5 mg/kg PO: 2.78 µM

## CC(C)(c1ccc(OCc2ocnc2S(C)(=O)=O)cc1)c1cc(Cl)c(OCCCl)c(C#N)c1 [Compound A28, 3-chloro-2-(2-chloroethoxy)-5-(2-(4-((4-(methylsulfonyl)oxazol-5-yl)methoxy)phenyl)propan-2-yl)benzonitrile]
[2]
  IC50: > 10 µM
[3]
  IC50: 0.93 µM
[4]
  IC50: 0.68 µM
[5]
  IC50: > 10 µM
[6]
  IC50: 6.43 µM
[1]
  microsomal CLint at 1 μM: 12 to 48 µL/min/mg
  half-life at 1 μM: 74 min
[7]
  half-life at 1 μM: > 120 min
[8]
  half-life at 1 μM: 73 min

## CC(C)(c1ccc(OCc2coc(NS(C)(=O)=O)n2)cc1)c1cc(Cl)c(OCCCl)c(Cl)c1 [Compound A38, N-(4-((4-(2-(3,5-dichloro-4-(2-chloroethoxy)phenyl)propan-2-yl)phenoxy)methyl)oxazol-2-yl)methanesulfonamide]
[2]
  IC50: > 10 µM
[3]
  IC50: 5.07 µM
[1]
  microsomal CLint at 1 μM: < 12 µL/min/mg
  half-life at 1 μM: > 120 min
[7]
  half-life at 1 μM: > 120 min
[8]
  half-life at 1 μM: > 120 min

## CC(C)(c1ccc(OCc2ccnc(NS(C)(=O)=O)n2)cc1)c1cc(Cl)c(OCCCl)c(Cl)c1 [Compound A74, N-(4-((4-(2-(3,5-dichloro-4-(2-chloroethoxy)phenyl)propan-2-yl)phenoxy)methyl)pyrimidin-2-yl)methanesulfonamide]
[2]
  IC50: > 10 µM
[3]
  IC50: 5.41 µM
[4]
  IC50: 1.16 µM
[5]
  IC50: > 10 µM
[6]
  IC50: 2.65 µM
[1]
  microsomal CLint at 1 μM: < 12 µL/min/mg
  half-life at 1 μM: > 120 min
[7]
  half-life at 1 μM: > 120 min
[8]
  half-life at 1 μM: > 120 min
[9]
  Cmin at 5 mg/kg PO: 29.1 µM

## CC(C)(c1ccc(OCc2ncc(S(C)(=O)=O)s2)cc1)c1cc(Cl)c(OCCCl)c(C#N)c1 [Compound A93, 3-chloro-2-(2-chloroethoxy)-5-(2-(4-((5-(methylsulfonyl)thiazol-2-yl)methoxy)phenyl)propan-2-yl)benzonitrile]
[2]
  IC50: > 10 µM
[3]
  IC50: 5.04 µM
[1]
  microsomal CLint at 1 μM: < 12 µL/min/mg
  half-life at 1 μM: > 120 min
[7]
  half-life at 1 μM: > 120 min
[8]
  half-life at 1 μM: 101 min

## CC(C)(c1ccc(OCc2ccnc(NS(C)(=O)=O)n2)cc1)c1cc(Cl)c(OCCCl)c(C#N)c1 [Compound A109, N-(4-((4-(2-(3-chloro-4-(2-chloroethoxy)-5-cyanophenyl)propan-2-yl)phenoxy)methyl)pyrimidin-2-yl)methanesulfonamide]
[2]
  IC50: > 10 µM
[3]
  IC50: 5.61 µM
[4]
  IC50: 0.44 µM
[5]
  IC50: > 10 µM
[6]
  IC50: 3.78 µM
[1]
  microsomal CLint at 1 μM: < 12 µL/min/mg
  half-life at 1 μM: > 120 min
[7]
  half-life at 1 μM: > 120 min
[8]
  half-life at 1 μM: > 120 min
[9]
  Cmin at 5 mg/kg PO: 8.18 µM

## Cc1cnc(NS(C)(=O)=O)nc1COc1ccc(C(C)(C)c2cc(Cl)c(OCCCl)c(C#N)c2)cc1 [Compound A122, N-(4-((4-(2-(3-Chloro-4-(2-chloroethoxy)-5-cyanophenyl)propan-2-yl)phenoxy)methyl)-5-methylpyrimidin-2-yl)methanesulfonamide]
[1]
  microsomal CLint at 1 μM: 12 to 48 µL/min/mg

## CCS(=O)(=O)Nc1nc(COc2ccc(C(C)(C)c3cc(Cl)c(OCCCl)c(C#N)c3)cc2)co1 [Compound A126]
[1]
  microsomal CLint at 1 μM: < 12 µL/min/mg

## CCS(=O)(=O)Nc1nccc(COc2ccc(C(C)(C)c3cc(Cl)c(OCCCl)c(C#N)c3)cc2)n1 [Compound A131]
[1]
  microsomal CLint at 1 μM: < 12 µL/min/mg

## CC(C)(c1ccc(OCc2nc(S(C)(=O)=O)cs2)cc1)c1cc(Cl)c(OCCCl)c(C#N)c1 [Compound A136, 3-Chloro-2-(2-chloroethoxy)-5-(2-(4-((4-(methylsulfonyl)thiazol-2-yl)methoxy)phenyl)propan-2-yl)benzonitrile]
[1]
  microsomal CLint at 1 μM: 12 to 48 µL/min/mg

## CC(C)(c1ccc(OC[C@H](O)CNS(C)(=O)=O)cc1)c1cc(Cl)c(OC[C@H](O)CCl)c(Cl)c1 [X, reference compound]
[2]
  IC50: 9.83 µM
[3]
  IC50: 4.96 µM
[4]
  IC50: 3 µM
[5]
  IC50: > 10 µM
[6]
  IC50: 4 µM
